System: 20S core particle (20S CP) of the proteasome
Assay: FRET peptide reporter hydrolysis, single concentration
Assay type: biochemical, Homo sapiens
Settings: stimulator (activation); site unknown

% stimulation over control at 25 μM: 215%
SMILES: C[C@H]1[C@H](C)CC[C@]2(C(=O)O)CC[C@]3(C)C(=CC[C@@H]4[C@@]5(C)CC[C@H](O)C(C)(C)[C@@H]5CC[C@]43C)[C@H]12 [UA, ursolic acid]

From article PMC8341874 (RSC Chemical Biology, 2021)
